Experimental data from article PMC6753678, “Fueling Open Innovation for Malaria Transmission-Blocking Drugs: Hundreds of Molecules Targeting Early Parasite Mosquito Stages” (Frontiers in Microbiology, 2019).
Where two headings read alike, the source gives them in different places.

Assays:
HepG2 cells [1] = conditions: cited from earlier work
[2] = test system: P. falciparum female gametocytes; test: P. falciparum female gametogenesis assay (Pf FGAA); conditions: 1: YES; 0: NO
[3] = test system: P. falciparum female gametocytes; design: method as in Miguel-Blanco et al 2017; conditions: TCAMS screen comparison; ref Miguel-Blanco et al 2017; read-out: Pf FGAA IC50; cited from earlier work
HepG2 cells [4] = test: HepG2 cytotoxicity assay; conditions: HepG2 cytotoxicity unified across the three screens
Outline: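 HepG2 cells, 2,500 per well in MEM with 10% FBS and 1% NEAA, exposed to compounds for 48 h at 37°C, 5% CO2. Viability read by fluorescence; percent inhibition relative to 50 μM doxorubicin and DMSO controls.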

[5] = test system: P. falciparum late stage (stages IV-V) gametocytes; design: method as in Almela et al 2016; conditions: TCAMS screen comparison; ref Almela et al 2016; read-out: Pf GCT ATP IC50; cited from earlier work
[6] = test system: P. falciparum late stage (stages IV-V) gametocytes; test: P. falciparum late stage gametocyte ATP depletion assay (Pf GC-ATP); conditions: 1: YES; 0: NO
[7] = value reported with the Pf FGAA screen, ref Miguel-Blanco et al 2017
[8] = value reported with the Pf GCT ATP screen, ref Almela et al 2016

Structure (SMILES)	HepG2 cytoxicity (HepG2 cells [1]; [7])	HepG2 cytoxicity (HepG2 cells [1]; [8])	Is compound selective in assay? Pf FGAA active? [2]	IC50 [3]	Unified cytotox (HepG2 cells [4])	IC50 [5]	Is compound selective in assay? Pf GC-ATP active? [6]
COc1cc2nc(N3CCN(c4nc(N)c5cc(OC)c(OC)cc5n4)CC3)nc(N)c2cc1OC [TCMDC-123865]	52.49 µM	>25 µM	1 (1: YES)	0.58 µM	52.49 µM	0.26 µM	1 (1: YES)
CC(Cc1ccc(C(=O)Nc2ccc(CC(C)NCCc3cccc(Cl)c3)cc2)cc1)NCCc1ccc(C(F)(F)F)cc1 (centres unmarked) [TCMDC-139790]	4.13 µM	3.3 µM	0 (0: NO)	1.01 µM	3.71 µM	0.31 µM	1 (1: YES)
CCc1c(CCNCCCCCCNC(C)Cc2ccc3c(c2CC)OCO3)ccc(OC)c1OC.Cl (centres unmarked) [TCMDC-132052]	2.46 µM	3.1 µM	0 (0: NO)	0.48 µM	2.78 µM	0.33 µM	0 (0: NO)
Cl.c1ccc2c(Nc3ccc(Cc4ccc(Nc5c6ccccc6nc6ccccc56)cc4)cc3)c3ccccc3nc2c1 [TCMDC-137354]	3.85 µM	4.49 µM	0 (0: NO)	1.04 µM	4.17 µM	2.3 µM	0 (0: NO)
COc1ccc2nc(-c3ccccc3)cc(NCCCNc3cc(-c4ccccc4)nc4ccc(OC)cc34)c2c1.Cl [TCMDC-137734]	70.79 µM	5.5 µM	0 (0: NO)	5.6 µM	38.15 µM	1.21 µM	1 (1: YES)
Nc1c(Cl)cc(C(O)CNCCCCCOCCCc2ccc(O)c3ncccc23)cc1Cl.O=C(O)/C=C/C(=O)O (centres unmarked) [TCMDC-132088]	7.76 µM	4.51 µM	0 (0: NO)	2.1 µM	6.14 µM	0.45 µM	1 (1: YES)
COc1cc2nc(NCc3cccc(CNC(=O)c4ccc(-c5ccc(C(C)=O)cc5)cc4)c3)nc(N)c2cc1OC.O=C(O)C(F)(F)F [TCMDC-138177]	6.82 µM	9.5 µM	0 (0: NO)	4.73 µM	8.16 µM	2 µM	0 (0: NO)
N=C(/N=C(/NCCCCCCN/C(=N/C(=N)NCc1ccc(Cl)c(Cl)c1)N1CCCCC1)N1CCCCC1)NCc1ccc(Cl)c(Cl)c1 [TCMDC-131816]	43.18 µM	>25 µM	1 (1: YES)	2.61 µM	43.18 µM	0.37 µM	1 (1: YES)
CCn1c(-c2nonc2N)nc2c(-c3cc4ccccc4s3)ncc(C(=O)N3CCC(N)C3)c21.O=C(O)C(F)(F)F (centres unmarked) [TCMDC-135281]	1.00 µM	3.5 µM	0 (0: NO)	0.45 µM	2.25 µM	0.35 µM	0 (0: NO)
CCN(CC)/C(=N/C(=N)NCc1ccc(Cl)cc1Cl)NCCCCCCN/C(=N\C(=N)NCc1ccc(Cl)cc1Cl)N(CC)CC [TCMDC-131819]	36.73 µM		0 (0: NO)	4.75 µM	36.73 µM	0.3 µM	1 (1: YES)
Cl.c1ccc2c(C3CCN(CCCCOc4ccc5c(c4)CCN(CC4CC4)CC5)CC3)c[nH]c2c1 [TCMDC-136244]	5.15 µM	6.81 µM	0 (0: NO)	1.15 µM	5.98 µM	0.71 µM	0 (0: NO)
CN(C)CCNCc1cccc(-c2ccc3c(Nc4ccc(Oc5ccccn5)cc4)ccnc3c2)c1 [TCMDC-138493]	3.98 µM	4.49 µM	0 (0: NO)	0.82 µM	4.24 µM	0.22 µM	1 (1: YES)
